Measurements published in ChEMBL document CHEMBL3739348, “Novel pyrrole derivatives as selective CHK1 inhibitors: design, regioselective synthesis and molecular modeling” (Medchemcomm, 2015).
pIC50: −log10 of the molar value.

Columns and labels:
[1] = organism: Homo sapiens; test: Selectivity index, ratio of IC50 for EGFR (unknown origin) to IC50 for CHK1 (unknown origin)
[2] = organism: Homo sapiens; test: Selectivity index, ratio of IC50 for VEGFR-2 (unknown origin) to IC50 for CHK1 (unknown origin)
[3] = target: T1, Vascular endothelial growth factor receptor 2 (Homo sapiens, UniProt P35968); test: Inhibition of VEGFR-2 (unknown origin) by microfluidic assay relative to control
[4] = target: Mitogen-activated protein kinase 14 (Homo sapiens) (UniProt Q16539); test: Inhibition of p38a (unknown origin) at 30 uM by microfluidic assay relative to control
[5] = target: Insulin receptor (Homo sapiens) (UniProt P06213); test: Inhibition of InsR (unknown origin) at 30 uM by microfluidic assay relative to control
[6] = target: T2, Serine/threonine-protein kinase D2 (Homo sapiens) (UniProt Q9BZL6); test: Inhibition of PKD2 (unknown origin) at 30 uM by microfluidic assay relative to control
T2 sequence (whole entry): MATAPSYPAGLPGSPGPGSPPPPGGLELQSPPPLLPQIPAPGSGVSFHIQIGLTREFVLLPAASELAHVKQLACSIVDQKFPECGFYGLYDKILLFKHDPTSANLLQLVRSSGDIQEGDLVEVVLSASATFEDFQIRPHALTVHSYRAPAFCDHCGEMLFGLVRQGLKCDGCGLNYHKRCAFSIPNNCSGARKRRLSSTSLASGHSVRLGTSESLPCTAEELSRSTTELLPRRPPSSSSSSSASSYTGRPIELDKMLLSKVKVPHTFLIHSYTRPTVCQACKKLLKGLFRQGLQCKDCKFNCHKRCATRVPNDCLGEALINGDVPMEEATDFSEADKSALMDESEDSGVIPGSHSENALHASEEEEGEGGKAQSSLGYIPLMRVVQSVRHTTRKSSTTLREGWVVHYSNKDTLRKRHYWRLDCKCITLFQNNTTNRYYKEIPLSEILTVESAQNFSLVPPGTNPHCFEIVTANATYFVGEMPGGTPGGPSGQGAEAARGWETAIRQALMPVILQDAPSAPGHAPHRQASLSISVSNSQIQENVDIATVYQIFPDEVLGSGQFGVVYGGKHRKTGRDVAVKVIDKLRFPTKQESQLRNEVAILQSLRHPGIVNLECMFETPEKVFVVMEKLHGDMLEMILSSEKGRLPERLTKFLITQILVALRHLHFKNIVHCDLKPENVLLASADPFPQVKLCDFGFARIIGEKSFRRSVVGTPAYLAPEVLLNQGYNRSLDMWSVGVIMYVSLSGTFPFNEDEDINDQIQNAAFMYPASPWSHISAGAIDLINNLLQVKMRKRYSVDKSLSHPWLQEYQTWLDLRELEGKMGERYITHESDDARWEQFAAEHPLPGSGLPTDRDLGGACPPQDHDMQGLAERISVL

[7] = target: T1, Vascular endothelial growth factor receptor 2; test: Inhibition of VEGFR-2 (unknown origin) at 30 uM by microfluidic assay relative to control
[8] = target: Epidermal growth factor receptor (Homo sapiens, UniProt P00533); test: Inhibition of EGFR (unknown origin) by microfluidic assay relative to control
Chain of Epidermal growth factor receptor (P00533 whole entry): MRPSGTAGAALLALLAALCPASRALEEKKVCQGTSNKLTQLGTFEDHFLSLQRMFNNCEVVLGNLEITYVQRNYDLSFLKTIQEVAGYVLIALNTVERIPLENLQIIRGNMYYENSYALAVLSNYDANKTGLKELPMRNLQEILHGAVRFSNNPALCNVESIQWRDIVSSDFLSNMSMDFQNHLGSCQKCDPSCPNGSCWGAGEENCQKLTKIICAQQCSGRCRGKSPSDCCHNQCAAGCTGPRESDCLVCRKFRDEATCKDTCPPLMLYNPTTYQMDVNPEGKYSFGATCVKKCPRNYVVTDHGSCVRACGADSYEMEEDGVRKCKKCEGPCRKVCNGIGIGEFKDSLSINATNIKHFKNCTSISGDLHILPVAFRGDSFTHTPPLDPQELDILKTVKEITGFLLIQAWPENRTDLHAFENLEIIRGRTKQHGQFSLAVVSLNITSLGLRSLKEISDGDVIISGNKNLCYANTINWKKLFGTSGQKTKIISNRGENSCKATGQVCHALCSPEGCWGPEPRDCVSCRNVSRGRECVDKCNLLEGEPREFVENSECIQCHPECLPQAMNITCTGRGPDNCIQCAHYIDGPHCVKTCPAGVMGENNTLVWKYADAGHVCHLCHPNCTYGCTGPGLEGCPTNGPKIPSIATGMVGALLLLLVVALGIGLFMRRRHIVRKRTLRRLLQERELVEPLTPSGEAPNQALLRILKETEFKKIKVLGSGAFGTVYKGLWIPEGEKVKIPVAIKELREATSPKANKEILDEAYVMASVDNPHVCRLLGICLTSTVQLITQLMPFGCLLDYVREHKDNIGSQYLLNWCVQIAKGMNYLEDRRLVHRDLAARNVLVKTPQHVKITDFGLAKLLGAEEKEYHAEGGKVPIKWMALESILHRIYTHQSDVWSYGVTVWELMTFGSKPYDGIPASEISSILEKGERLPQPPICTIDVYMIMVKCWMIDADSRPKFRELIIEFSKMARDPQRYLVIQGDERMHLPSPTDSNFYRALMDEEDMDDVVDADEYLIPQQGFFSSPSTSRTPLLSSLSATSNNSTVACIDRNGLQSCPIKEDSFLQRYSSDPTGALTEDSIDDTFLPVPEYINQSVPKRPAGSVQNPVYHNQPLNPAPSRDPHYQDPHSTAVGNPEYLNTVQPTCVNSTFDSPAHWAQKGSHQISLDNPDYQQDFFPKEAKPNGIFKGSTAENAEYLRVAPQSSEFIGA

Chain of Mitogen-activated protein kinase 14 (Homo sapiens) (Q16539 whole entry): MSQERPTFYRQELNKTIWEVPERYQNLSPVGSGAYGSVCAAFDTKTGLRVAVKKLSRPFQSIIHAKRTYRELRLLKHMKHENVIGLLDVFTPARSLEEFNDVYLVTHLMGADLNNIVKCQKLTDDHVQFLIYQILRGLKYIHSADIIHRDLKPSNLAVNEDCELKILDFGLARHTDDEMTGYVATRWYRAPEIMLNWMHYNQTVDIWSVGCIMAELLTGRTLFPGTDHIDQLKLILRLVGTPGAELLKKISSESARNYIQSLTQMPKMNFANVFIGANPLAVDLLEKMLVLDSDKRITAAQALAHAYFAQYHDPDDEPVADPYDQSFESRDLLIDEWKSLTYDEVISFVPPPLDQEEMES
Chain of Insulin receptor (Homo sapiens) (P06213 28-758 limits assumed): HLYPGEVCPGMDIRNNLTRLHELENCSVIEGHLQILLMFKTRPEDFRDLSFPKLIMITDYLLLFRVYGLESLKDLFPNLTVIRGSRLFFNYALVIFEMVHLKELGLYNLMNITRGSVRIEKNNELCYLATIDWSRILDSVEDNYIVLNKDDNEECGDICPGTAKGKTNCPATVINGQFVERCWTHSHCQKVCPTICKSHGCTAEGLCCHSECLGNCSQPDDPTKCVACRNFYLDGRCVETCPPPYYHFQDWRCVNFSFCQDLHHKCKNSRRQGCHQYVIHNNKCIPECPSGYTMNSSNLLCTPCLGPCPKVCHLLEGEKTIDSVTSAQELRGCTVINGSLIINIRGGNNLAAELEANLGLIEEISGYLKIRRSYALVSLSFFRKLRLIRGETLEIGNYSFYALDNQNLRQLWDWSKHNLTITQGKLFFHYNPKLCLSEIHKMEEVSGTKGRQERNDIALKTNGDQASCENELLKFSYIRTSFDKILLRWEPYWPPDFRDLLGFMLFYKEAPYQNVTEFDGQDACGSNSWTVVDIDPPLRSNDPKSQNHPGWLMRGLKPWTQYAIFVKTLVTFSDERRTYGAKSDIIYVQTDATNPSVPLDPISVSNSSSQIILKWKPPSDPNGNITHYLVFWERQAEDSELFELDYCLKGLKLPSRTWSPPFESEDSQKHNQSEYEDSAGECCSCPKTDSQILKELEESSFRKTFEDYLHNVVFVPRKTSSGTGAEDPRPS
Chain of Insulin receptor (Homo sapiens) (P06213 763-1382 limits assumed): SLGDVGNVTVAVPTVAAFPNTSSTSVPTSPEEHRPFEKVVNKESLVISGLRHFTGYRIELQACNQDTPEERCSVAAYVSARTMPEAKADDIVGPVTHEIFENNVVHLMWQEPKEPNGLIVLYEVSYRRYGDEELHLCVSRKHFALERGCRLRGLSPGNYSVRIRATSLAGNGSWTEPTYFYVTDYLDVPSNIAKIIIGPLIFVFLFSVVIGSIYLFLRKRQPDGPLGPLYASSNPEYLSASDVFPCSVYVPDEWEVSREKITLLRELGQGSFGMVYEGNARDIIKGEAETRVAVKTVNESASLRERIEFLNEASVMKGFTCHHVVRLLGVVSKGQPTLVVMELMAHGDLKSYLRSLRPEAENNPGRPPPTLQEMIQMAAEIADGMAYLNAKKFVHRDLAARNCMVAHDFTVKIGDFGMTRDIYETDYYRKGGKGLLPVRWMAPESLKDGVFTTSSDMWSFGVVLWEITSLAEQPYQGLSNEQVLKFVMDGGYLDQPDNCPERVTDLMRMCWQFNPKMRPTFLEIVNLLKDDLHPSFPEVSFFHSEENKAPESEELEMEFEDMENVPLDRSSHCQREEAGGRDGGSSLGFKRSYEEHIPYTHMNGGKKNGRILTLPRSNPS
T1 sequence (P35968 whole entry): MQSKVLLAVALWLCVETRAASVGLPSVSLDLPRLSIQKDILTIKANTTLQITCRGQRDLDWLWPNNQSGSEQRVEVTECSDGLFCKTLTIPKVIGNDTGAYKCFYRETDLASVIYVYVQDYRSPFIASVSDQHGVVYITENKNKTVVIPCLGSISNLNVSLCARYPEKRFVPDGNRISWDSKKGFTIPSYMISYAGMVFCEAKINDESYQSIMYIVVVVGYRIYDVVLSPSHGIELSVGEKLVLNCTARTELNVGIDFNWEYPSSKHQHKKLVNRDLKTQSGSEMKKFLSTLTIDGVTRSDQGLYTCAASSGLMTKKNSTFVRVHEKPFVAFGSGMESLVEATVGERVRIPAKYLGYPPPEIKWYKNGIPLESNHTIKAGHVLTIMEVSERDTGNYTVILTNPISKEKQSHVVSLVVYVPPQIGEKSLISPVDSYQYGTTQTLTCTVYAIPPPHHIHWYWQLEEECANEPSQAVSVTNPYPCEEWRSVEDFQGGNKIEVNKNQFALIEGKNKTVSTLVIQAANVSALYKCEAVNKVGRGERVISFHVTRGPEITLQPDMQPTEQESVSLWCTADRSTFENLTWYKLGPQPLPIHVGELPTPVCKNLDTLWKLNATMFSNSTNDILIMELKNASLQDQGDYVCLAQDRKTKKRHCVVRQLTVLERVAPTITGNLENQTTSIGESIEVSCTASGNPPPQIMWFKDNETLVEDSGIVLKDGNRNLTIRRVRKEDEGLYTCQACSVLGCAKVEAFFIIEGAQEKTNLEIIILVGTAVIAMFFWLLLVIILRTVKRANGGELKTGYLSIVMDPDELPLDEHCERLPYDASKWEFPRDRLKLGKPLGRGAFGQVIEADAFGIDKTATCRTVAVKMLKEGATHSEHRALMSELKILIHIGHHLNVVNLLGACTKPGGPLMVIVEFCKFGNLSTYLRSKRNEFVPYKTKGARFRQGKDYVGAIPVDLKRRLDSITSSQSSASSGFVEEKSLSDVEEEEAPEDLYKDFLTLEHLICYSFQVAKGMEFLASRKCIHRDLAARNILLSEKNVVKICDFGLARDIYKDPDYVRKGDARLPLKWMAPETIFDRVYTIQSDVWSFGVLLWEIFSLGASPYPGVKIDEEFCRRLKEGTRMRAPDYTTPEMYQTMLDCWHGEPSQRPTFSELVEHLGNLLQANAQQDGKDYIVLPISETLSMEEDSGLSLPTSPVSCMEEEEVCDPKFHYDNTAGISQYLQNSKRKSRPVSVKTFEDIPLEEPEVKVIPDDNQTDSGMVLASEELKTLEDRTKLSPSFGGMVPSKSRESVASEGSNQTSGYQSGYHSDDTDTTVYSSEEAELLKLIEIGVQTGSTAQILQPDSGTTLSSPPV

SMILES	Ratio IC50 [1]	Ratio IC50 [2]	pIC50 [3]	inhibition [4]	inhibition [5]	inhibition [6]	inhibition [7]	pIC50 [8]
Cc1[nH]c(-c2ccccc2)c(-c2ccccc2)c1C(=O)c1coc2c1cc(O)c1ccccc12	16.4	14.7	5.34	21%	32%	54%	100%	5.29
Cc1[nH]c(-c2ccccc2)c(-c2ccccc2)c1-c1nnc(O)c2nn(-c3ccccc3)cc12	–	–	5.46	2%	12%	32%	100%	–
Cc1[nH]c(-c2ccccc2)c(-c2ccccc2)c1C(=O)c1cn(-c2ccccc2)nc1C(=O)Nc1ccccc1	–	–	5.46	13%	33%	65%	100%	–
